# How the values were obtained:
# [1] = test system: SETVI (Foxtail, Green); assay: Postemergence herbicidal evaluation; assay type: in vivo, Setaria viridis; details: postemergence
# Method in brief: (§1)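 Two-week seedlings sprayed postemergence at 40 psi; formulation: 1:1 acetone/water, 0.5% TWEEN 20; application ≈0.0156–0.500 kg/ha. Greenhouse grow-out, then 0–9 visual scoring at 4–5 weeks.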
# [2] = test system: ORYSAT (Rice, Tebonnet); assay: Postemergence herbicidal evaluation; assay type: in vivo, Oryza sativa, (L.) Tebonnet; details: postemergence
# Method in brief: as §1
# [3] = test system: ZEAMX (Corn, Field); assay: Postemergence herbicidal evaluation; assay type: in vivo, Zea mays; details: postemergence
# Method in brief: as §1
# [4] = test system: ECHCG (Barnyardgrass); assay: Preemergence herbicidal evaluation; assay type: in vivo, Echinochloa crus-galli; details: rated 4-5 weeks after treatment
# Method in brief: (§2)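 Test compound, dissolved in aqueous acetone, was sprayed over planted soil cups at an equivalent of about 0.0156 to 0.500 kg/ha; seeds had been mixed with potting soil. Greenhouse growth followed, with visual 0-9 scoring of injury at four to five weeks.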
# [5] = test system: SETVI (Foxtail, Green); assay: Preemergence herbicidal evaluation; assay type: in vivo, Setaria viridis; details: rated 4-5 weeks after treatment
# Method in brief: as §2
# [6] = test system: TRZAWR (Wheat, Winter, cv Riband); assay: Preemergence herbicidal evaluation; assay type: in vivo, Triticum aestivum; details: rated 4-5 weeks after treatment
# Text: (§3) Results of herbicide evaluation are expressed on a rating scale (0-9). The scale is based upon a visual observation of plant stand, vigor, malformation, size, chlorosis and overall plant appearance as compared with a control.
# (§4) The preemergence herbicidal activity of the test compounds of the present invention is exemplified by the following tests in which the seeds of a variety of monocotyledonous and dicotyledonous plants are separately mixed with potting soil and planted on top of approximately one inch of soil in separate pint cups. After planting, the cups are sprayed with the selected aqueous acetone solution containing test compound in sufficient quantity to provide the equivalent of about 0.0156 to 0.500 kg per hectare of test compound per cup. The treated cups are then placed on greenhouse benches, watered and cared for in accordance with conventional greenhouse procedures. From four to five weeks after treatment, the tests are terminated and each cup is examined and rated according to the rating system provided in Example 37.
# (§5) The compounds evaluated are reported by compound number given in Example 37.
# [7] = test system: ZEAMX (Corn, Field); assay: Preemergence herbicidal evaluation; assay type: in vivo, Zea mays; details: rated 4-5 weeks after treatment
# Text: as §3, §4, §5
# [8] = test system: ECHORC (Watergrass (Calif.)); assay: Preemergence weed control under flooded paddy conditions; assay type: in vivo, Echinochloa oryzoides; details: rated 3-4 weeks after treatment
# Method in brief: (§6)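 First, seeds or propagules go into the top 0.5 cm of silt loam; next, water is held 1.5 to 3 cm over the soil; then compound (50/50 acetone/water) is pipetted into it at about 0.0313 to 0.500 kg/ha; finally plants are rated visually 0-9 after three to four weeks.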
# [9] = test system: CYPIR (Rice Flatsedge); assay: as above; assay type: in vivo, Cyperus iria; details: rated 3-4 weeks after treatment
# Method in brief: as §6
# [10] = test system: CYPSE (Flatsedge); assay: as above; assay type: in vivo, Cyperus serotinus; details: rated 3-4 weeks after treatment
# Method in brief: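 Flooded-pot preemergence screen with silt loam and seeds in the upper 0.5 cm. Dose about 0.0313 to 0.500 kg/ha, delivered into flood water; visual 0-9 score after 3 to 4 weeks.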
smiles,measurement,setting,value
"CC(C)COC(=O)CN1C(=O)CSC1=Nc1cc(-n2c(=O)cc(C(F)(F)F)n(C)c2=O)c(F)cc1Cl [Compound 121, Isobutyl 2-{{2-chloro-5-[3,6-dihydro-3-methyl-2,6-dioxo-4-(trifluoromethyl)-1(2H)-pyrimidinyl]-4-fluorophenyl}imino}-4-oxo-3-thiazolidineacetate]",Herbicidal rating SETVI,[1]; rate 0.0156 kg/ha,8.0
same,Herbicidal rating SETVI,[1]; rate 0.0313 kg/ha,8.0
same,Herbicidal rating SETVI,[1]; rate 0.0625 kg/ha,9.0
same,Herbicidal rating ORYSAT,[2]; rate 0.0156 kg/ha,2.0
same,Herbicidal rating ORYSAT,[2]; rate 0.0313 kg/ha,2.5
same,Herbicidal rating ORYSAT,[2]; rate 0.0625 kg/ha,3.0
same,Herbicidal rating ZEAMX,[3]; rate 0.0156 kg/ha,5.0
same,Herbicidal rating ZEAMX,[3]; rate 0.0313 kg/ha,5.0
same,Herbicidal rating ZEAMX,[3]; rate 0.0625 kg/ha,6.0
same,Preemergence herbicidal rating ECHCG,[4]; rate 0.0156 kg/ha,0.0
same,Preemergence herbicidal rating ECHCG,[4]; rate 0.0313 kg/ha,0.0
same,Preemergence herbicidal rating ECHCG,[4]; rate 0.0625 kg/ha,4.0
same,Preemergence herbicidal rating ECHCG,[4]; rate 0.1250 kg/ha,7.0
same,Preemergence herbicidal rating ECHCG,[4]; rate 0.2500 kg/ha,9.0
same,Preemergence herbicidal rating SETVI,[5]; rate 0.0156 kg/ha,0.0
same,Preemergence herbicidal rating SETVI,[5]; rate 0.0313 kg/ha,3.0
same,Preemergence herbicidal rating SETVI,[5]; rate 0.0625 kg/ha,7.0
same,Preemergence herbicidal rating SETVI,[5]; rate 0.1250 kg/ha,9.0
same,Preemergence herbicidal rating SETVI,[5]; rate 0.2500 kg/ha,9.0
same,Preemergence herbicidal rating TRZAWR,[6]; rate 0.0156 kg/ha,0.0
same,Preemergence herbicidal rating TRZAWR,[6]; rate 0.0313 kg/ha,2.0
same,Preemergence herbicidal rating TRZAWR,[6]; rate 0.0625 kg/ha,3.0
same,Preemergence herbicidal rating TRZAWR,[6]; rate 0.1250 kg/ha,7.0
same,Preemergence herbicidal rating TRZAWR,[6]; rate 0.2500 kg/ha,8.0
same,Preemergence herbicidal rating ZEAMX,[7]; rate 0.0156 kg/ha,0.0
same,Preemergence herbicidal rating ZEAMX,[7]; rate 0.0313 kg/ha,4.0
same,Preemergence herbicidal rating ZEAMX,[7]; rate 0.0625 kg/ha,6.0
same,Preemergence herbicidal rating ZEAMX,[7]; rate 0.1250 kg/ha,7.0
same,Preemergence herbicidal rating ZEAMX,[7]; rate 0.2500 kg/ha,8.0
same,"herbicidal effect rating, ECHORC",[8]; 0.0313 kg/ha,4.0
same,"herbicidal effect rating, ECHORC",[8]; 0.0625 kg/ha,5.0
same,"herbicidal effect rating, ECHORC",[8]; 0.1250 kg/ha,6.0
same,"herbicidal effect rating, ECHORC",[8]; 0.2500 kg/ha,6.0
same,"herbicidal effect rating, CYPIR",[9]; 0.0313 kg/ha,4.0
same,"herbicidal effect rating, CYPIR",[9]; 0.0625 kg/ha,4.0
same,"herbicidal effect rating, CYPIR",[9]; 0.1250 kg/ha,8.0
same,"herbicidal effect rating, CYPIR",[9]; 0.2500 kg/ha,8.0
same,"herbicidal effect rating, CYPSE",[10]; 0.0313 kg/ha,2.0
same,"herbicidal effect rating, CYPSE",[10]; 0.1250 kg/ha,5.0
same,"herbicidal effect rating, CYPSE",[10]; 0.2500 kg/ha,5.0
"Cn1c(C(F)(F)F)cc(=O)n(-c2cc(N=C3SCC(=O)N3CC(=O)OCC3CCCCC3)c(Cl)cc2F)c1=O [Compound 123, Cyclohexylmethyl 2-{{2-chloro-5-[3,6-dihydro-3-methyl-2,6-dioxo-4-(trifluoromethyl)-1(2H)-pyrimidinyl]-4-fluorophenyl}imino}-4-oxo-3-thiazolidineacetate]",Herbicidal rating SETVI,[1]; rate 0.0156 kg/ha,9.0
same,Herbicidal rating SETVI,[1]; rate 0.0313 kg/ha,9.0
same,Herbicidal rating SETVI,[1]; rate 0.0625 kg/ha,9.0
same,Herbicidal rating SETVI,[1]; rate 0.1250 kg/ha,9.0
same,Herbicidal rating ORYSAT,[2]; rate 0.0156 kg/ha,4.0
same,Herbicidal rating ORYSAT,[2]; rate 0.0313 kg/ha,4.0
same,Herbicidal rating ORYSAT,[2]; rate 0.0625 kg/ha,5.5
same,Herbicidal rating ORYSAT,[2]; rate 0.1250 kg/ha,5.5
same,Herbicidal rating ZEAMX,[3]; rate 0.0156 kg/ha,6.5
same,Herbicidal rating ZEAMX,[3]; rate 0.0313 kg/ha,7.0
same,Herbicidal rating ZEAMX,[3]; rate 0.0625 kg/ha,7.5
same,Herbicidal rating ZEAMX,[3]; rate 0.1250 kg/ha,7.5
same,Preemergence herbicidal rating ECHCG,[4]; rate 0.0156 kg/ha,0.0
same,Preemergence herbicidal rating ECHCG,[4]; rate 0.0313 kg/ha,0.0
same,Preemergence herbicidal rating ECHCG,[4]; rate 0.0625 kg/ha,0.0
same,Preemergence herbicidal rating ECHCG,[4]; rate 0.1250 kg/ha,1.0
same,Preemergence herbicidal rating ECHCG,[4]; rate 0.2500 kg/ha,4.0
same,Preemergence herbicidal rating ECHCG,[4]; rate 0.5000 kg/ha,7.0
same,Preemergence herbicidal rating SETVI,[5]; rate 0.0156 kg/ha,7.0
same,Preemergence herbicidal rating SETVI,[5]; rate 0.0313 kg/ha,7.0
same,Preemergence herbicidal rating SETVI,[5]; rate 0.0625 kg/ha,7.0
same,Preemergence herbicidal rating SETVI,[5]; rate 0.1250 kg/ha,9.0
same,Preemergence herbicidal rating SETVI,[5]; rate 0.2500 kg/ha,9.0
same,Preemergence herbicidal rating SETVI,[5]; rate 0.5000 kg/ha,9.0
same,Preemergence herbicidal rating TRZAWR,[6]; rate 0.0156 kg/ha,0.0
same,Preemergence herbicidal rating TRZAWR,[6]; rate 0.0313 kg/ha,0.0
same,Preemergence herbicidal rating TRZAWR,[6]; rate 0.0625 kg/ha,0.0
same,Preemergence herbicidal rating TRZAWR,[6]; rate 0.1250 kg/ha,1.0
same,Preemergence herbicidal rating TRZAWR,[6]; rate 0.2500 kg/ha,1.0
same,Preemergence herbicidal rating TRZAWR,[6]; rate 0.5000 kg/ha,1.0
same,Preemergence herbicidal rating ZEAMX,[7]; rate 0.0156 kg/ha,0.0
same,Preemergence herbicidal rating ZEAMX,[7]; rate 0.0313 kg/ha,1.0
same,Preemergence herbicidal rating ZEAMX,[7]; rate 0.0625 kg/ha,1.0
same,Preemergence herbicidal rating ZEAMX,[7]; rate 0.1250 kg/ha,5.0
same,Preemergence herbicidal rating ZEAMX,[7]; rate 0.2500 kg/ha,7.0
same,Preemergence herbicidal rating ZEAMX,[7]; rate 0.5000 kg/ha,7.0
same,"herbicidal effect rating, ECHORC",[8]; 0.0313 kg/ha,7.0
same,"herbicidal effect rating, ECHORC",[8]; 0.0625 kg/ha,9.0
same,"herbicidal effect rating, ECHORC",[8]; 0.1250 kg/ha,9.0
same,"herbicidal effect rating, ECHORC",[8]; 0.2500 kg/ha,9.0
same,"herbicidal effect rating, CYPIR",[9]; 0.0313 kg/ha,6.0
same,"herbicidal effect rating, CYPIR",[9]; 0.0625 kg/ha,5.0
same,"herbicidal effect rating, CYPIR",[9]; 0.1250 kg/ha,9.0
same,"herbicidal effect rating, CYPIR",[9]; 0.2500 kg/ha,9.0
same,"herbicidal effect rating, CYPSE",[10]; 0.0313 kg/ha,5.0
same,"herbicidal effect rating, CYPSE",[10]; 0.0625 kg/ha,9.0
same,"herbicidal effect rating, CYPSE",[10]; 0.1250 kg/ha,9.0
same,"herbicidal effect rating, CYPSE",[10]; 0.2500 kg/ha,9.0

# Reference: patent US20020137929A1, “1 - (3-heterocyclylphenyl) isothiourea, -isourea, -guanidine and -amidine herbicidal agents” (Intellectual Property Department, BASF Aktiengesellschaft, priority 1998, published 2002)
